Legend:
platelets [1] = assay: Platelet activation by whole blood flow cytometry: fibrinogen binding; type: cell-based, human; conditions: PAR1 1 μM final, 501 healthy subjects
Protocol: (§1) PAR1 and PAR4 agonists were supplied as freeze dried peptides and reconstituted with HEPES buffered saline [HBS, 0.14M NaCl, 5 mM KCl, 1 mM MgSO4, 10 mM HEPES (sodium salt), pH 7.4] to 1 mM concentrations prior to storing in single use aliquots at −80° C. Immediately prior to use PAR1 was thawed and diluted in HBS to 10 μM as a working concentration to give a final assay concentration of 1 μM. Similarly PAR4 was diluted to 100 μM working concentration to give a final assay concentration of 10 μM.
(§2) The antibodies used for flow cytometry were: rabbit FITC-anti-fibrinogen (Dako Ltd, Ely, UK), PE-anti-CD62P and a relevant PE-isotype control (Bristol Institute for Transfusion Science, Bristol, UK). HBS was used for all dilutions.
(§3) Blood was processed within 15 minutes of venesection, with 5 μL of citrated whole blood containing aspirin (100 μM) and hirudin (10 U/mL) being added to 45 μL of HBS containing apyrase (4 U/mL), either FITC-anti-fibrinogen or PE anti-CD62P, and either PAR1 (1 μM final concentration) or PAR4 (10 μM final concentration). […] Platelets were identified by light scatter and results were recorded as the percentage of platelets positive for the relevant activation marker. […]

platelets [2] = assay: Platelet activation by whole blood flow cytometry: P-selectin (CD62P) expression; type: cell-based, human; conditions: PAR1 1 μM final, 501 healthy subjects
Protocol: as §1, §2, §3

[3] = biological target: T1, protease-activated receptor type 4 (PAR4) (Homo sapiens, UniProt Q96RI0); conditions: abstract of Lee et al., J. Med. Chem., 44(22):3746-3749 (2001); cited from earlier work
T1 sequence (Q96RI0 18-385): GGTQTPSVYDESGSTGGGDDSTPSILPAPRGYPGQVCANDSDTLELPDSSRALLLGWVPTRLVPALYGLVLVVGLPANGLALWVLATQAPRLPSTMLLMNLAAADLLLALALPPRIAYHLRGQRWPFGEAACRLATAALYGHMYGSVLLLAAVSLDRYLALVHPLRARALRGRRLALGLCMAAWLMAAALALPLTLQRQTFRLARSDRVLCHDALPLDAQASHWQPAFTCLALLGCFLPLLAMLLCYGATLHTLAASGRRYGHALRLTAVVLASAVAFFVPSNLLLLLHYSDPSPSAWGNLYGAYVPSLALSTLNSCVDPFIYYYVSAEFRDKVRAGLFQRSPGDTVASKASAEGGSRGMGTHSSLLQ

| Compound | fibrinogen binding, % positive platelets, median (platelets [1]) [%] | P-selectin expression, % positive platelets, median (platelets [2]) [%] | inhibition of PAR4-dependent platelet activation [3] |
| --- | --- | --- | --- |
| PAR1: PAR1 agonist, freeze dried peptide supplied by Bristol-Myers Squibb; Example 2 control is Compound A, SFFLRR (SEQ ID NO: 39) | 19.7 | 86.8 | – |
| CCOC(=O)c1ccc(-c2nn(Cc3ccccc3)c3ccccc23)cc1 | – | – | selective and potent inhibitor |

— patent US20160274108A1, “DIAGNOSTIC METHODS FOR PAR4 ANTAGONIST THERAPY” (BRISTOL-MYERS SQUIBB COMPANY, priority 2013, published 2016)
